Like-named read-outs stand apart in the source and are kept apart here. *1 amine or outer side, *2 acyl side, *3 side chain or, on linkers, in order; H or OH if unused. Where a SMILES comes first, the peptide text is derived from it. Bridges are numbered along the chain shown (N, C = ends). [ ]: non-standard residue; d: D form. The star is where a group is joined. hPhe(3,5-F2-4-CF3) = N[C@@H](CCc1cc(F)c(C(F)(F)F)c(F)c1)C(=O)O; hPhe(3-Cl-4-CF3) = N[C@@H](CCc1ccc(C(F)(F)F)c(Cl)c1)C(=O)O; NPrPhe(4-CF3) = CCCN[C@@H](Cc1ccc(C(F)(F)F)cc1)C(=O)O; X41 = Cc1ccc(C[C@@H](C(=O)[*:2])N(CC2CCCCC2)[*:1])cc1; NPrPhe(4-Me) = CCCN[C@@H](Cc1ccc(C)cc1)C(=O)O; NMePhe(4-F) = CN[C@@H](Cc1ccc(F)cc1)C(=O)O; NMeGly(cPent) = CN[C@H](C(=O)O)C1CCCC1; αMeCha = C[C@](N)(CC1CCCCC1)C(=O)O; NMeD = CN[C@@H](CC(=O)O)C(=O)O; NMeL = CN[C@@H](CC(C)C)C(=O)O; αMeS = C[C@](N)(CO)C(=O)O; Morpholide = C1CN(*)CCO1; NMeA = CN[C@@H](C)C(=O)O; Ac5c = NC1(C(=O)O)CCCC1; Aze = O=C(O)[C@@H]1CCN1; Ac4c = NC1(C(=O)O)CCC1; NEtG = CCNCC(=O)O; Sar = CNCC(=O)O; tBu = CC(C)(C)*
How the values were obtained:
[1] = molecular target: GDP-bound NRAS wild-type protein (Homo sapiens, UniProt P01111); experiment: Binding to NRAS by surface plasmon resonance (SPR), Single Cycle Kinetics; conditions: for NRAS/KRAS (ratio of KD value for NRAS to KD value for KRAS) / NRAS/KRAS (ratio of KD value with respect to NRAS to KD value with respect to KRAS): SPR, GDP-bound NRAS wild-type protein vs GDP-bound KRAS wild-type protein
GDP-bound NRAS wild-type protein, sequence (P01111 whole entry): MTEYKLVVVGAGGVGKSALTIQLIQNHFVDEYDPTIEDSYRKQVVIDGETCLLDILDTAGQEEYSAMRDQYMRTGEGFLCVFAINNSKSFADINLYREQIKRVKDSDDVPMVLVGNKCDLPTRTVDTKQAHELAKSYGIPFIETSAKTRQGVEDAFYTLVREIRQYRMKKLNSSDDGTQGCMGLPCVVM

[2] = molecular target: GDP-bound KRAS wild-type protein (Homo sapiens, UniProt P01116); experiment: Binding to KRAS by surface plasmon resonance (SPR), Single Cycle Kinetics; conditions: GDP-bound KRAS wild-type protein, read-out: KRAS KD
GDP-bound KRAS wild-type protein, sequence (P01116 whole entry): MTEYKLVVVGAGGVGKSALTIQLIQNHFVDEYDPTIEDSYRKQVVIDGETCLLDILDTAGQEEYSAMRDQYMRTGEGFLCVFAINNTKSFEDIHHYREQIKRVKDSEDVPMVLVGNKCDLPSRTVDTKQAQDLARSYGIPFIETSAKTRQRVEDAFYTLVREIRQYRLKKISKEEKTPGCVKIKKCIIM

[3] = molecular target: GDP-bound HRAS wild-type protein (Homo sapiens, UniProt P01112); experiment: Binding to HRAS by surface plasmon resonance (SPR), Single Cycle Kinetics; conditions: for HRAS/KRAS (ratio of KD value for HRAS to KD value for KRAS) / HRAS/KRAS (ratio of KD value with respect to HRAS to KD value with respect to KRAS): SPR, GDP-bound HRAS wild-type protein vs GDP-bound KRAS wild-type protein
GDP-bound HRAS wild-type protein, sequence (P01112 whole entry): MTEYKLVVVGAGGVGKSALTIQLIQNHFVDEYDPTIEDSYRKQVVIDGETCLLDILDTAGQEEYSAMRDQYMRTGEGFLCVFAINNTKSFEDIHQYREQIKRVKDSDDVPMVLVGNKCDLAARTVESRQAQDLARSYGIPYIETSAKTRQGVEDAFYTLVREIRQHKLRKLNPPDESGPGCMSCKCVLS

[4] = SPR Single Cycle Kinetics, 1:1 binding model

| SMILES | NRAS/KRAS (ratio of KD value for NRAS to KD value for KRAS) [1] | Kd ([2]; SPR, Single Cycle Kinetics) [nM] | HRAS/KRAS (ratio of KD value for HRAS to KD value for KRAS) [3] | NRAS/KRAS (ratio of KD value with respect to NRAS to KD value with respect to KRAS) [1] | Kd [2, 4] [nM] | HRAS/KRAS (ratio of KD value with respect to HRAS to KD value with respect to KRAS) [3] | NRAS/KRAS (ratio of KD value with respect to GDP-bound NRAS wild-type protein to KD value with respect to KRAS) ([1]; SPR KD ratio NRAS/KRAS, class symbols) | HRAS/KRAS (ratio of KD value with respect to GDP-bound HRAS wild-type protein to KD value with respect to KRAS) ([3]; SPR KD ratio HRAS/KRAS, class symbols) |
| --- | --- | --- | --- | --- | --- | --- | --- | --- |
| CCO[C@@H]1C[C@H]2C(=O)NC3(CCC3)C(=O)N(C)[C@@H](C3CCCC3)C(=O)N(C)[C@H](C(=O)N(C)C)CC(=O)N(C)[C@@H](CC)C(=O)N[C@@H]([C@@H](C)CC)C(=O)N3CCSC[C@H]3C(=O)N(C)[C@H]3C/C=C\CCN(C3=O)[C@@H](Cc3ccc(C(F)(F)F)cc3)C(=O)N(C)CC(=O)N[C@@H](CCc3cc(F)c(C(F)(F)F)c(F)c3)C(=O)N2C1 [PP1060] | A (a compound having 10 or more and less than 20 is denoted as A) | 2.6 | A (a compound having 10 or more and less than 20 is denoted as A) | – | – | – | – | – |
| CCO[C@@H]1C[C@H]2C(=O)NC3(CC(C)(C)C3)C(=O)N(C)[C@@H](C(CC)CC)C(=O)N(C)[C@H](C(=O)N(C)C)CC(=O)N(C)[C@@H](CC3CCC3)C(=O)N[C@@H]([C@@H](C)CC)C(=O)N(C)CC(=O)N(C)[C@H]3C/C=C\CCN(C3=O)[C@@H](Cc3ccc(C)cc3)C(=O)N(C)CC(=O)N[C@@H](CCc3ccc(C(F)(F)F)c(OC)c3)C(=O)N2C1 [PP2172] | A (a compound having 10 or more and less than 20 is denoted as A) | 0.51 | B (a compound having 3 or more and less than 10 is denoted as B) | – | – | – | – | – |
| CCCN1C(=O)CN(C)C(=O)CN(C)C(=O)[C@H]([C@@H](C)CC)NC(=O)[C@H](CC(C)C)N(C)C(=O)C[C@@H](C(=O)N(C)C)N(C)C(=O)[C@H](C2CCCC2)N(C)C(=O)[C@](C)(COC(C)(C)C)NC(=O)[C@@H]2CCCN2C(=O)[C@H](CCc2cc(F)c(C(F)(F)F)c(F)c2)NC(=O)CN(C)C(=O)[C@@H]1Cc1ccc(C(F)(F)F)cc1 [PP0743] ([NMeL]I[Sar][Sar][NPrPhe(4-CF3)][Sar][hPhe(3,5-F2-4-CF3)]P[αMeS](tBu)[NMeGly(cPent)][NMeD]-NMe2; lactam N-11) | – | – | – | B (a compound having 3 or more and less than 10 is denoted as B) | 0.68 | C (A compound having a KD ratio of 0.1 or more and less than 3 is denoted as C) | – | – |
| CCCN1C(=O)[C@@H]2CCN2C(=O)[C@H](C)N(C)C(=O)[C@H]([C@@H](C)CC)NC(=O)[C@H](CC(C)C)N(C)C(=O)C[C@@H](C(=O)N2CCOCC2)N(C)C(=O)[C@H](C2CCCC2)N(C)C(=O)C2(CCCC2)NC(=O)[C@@H]2CCCN2C(=O)[C@H](CCc2ccc(C(F)(F)F)c(Cl)c2)NC(=O)CN(CC)C(=O)[C@@H]1Cc1ccc(C)cc1 [PP0058] ([NMeL]I[NMeA][Aze][NPrPhe(4-Me)][NEtG][hPhe(3-Cl-4-CF3)]P[Ac5c][NMeGly(cPent)][NMeD]-Morpholide; lactam N-11) | C (A compound having a KD ratio of 0.1 or more and less than 3 is denoted as C) | – | C (A compound having a KD ratio of 0.1 or more and less than 3 is denoted as C) | – | 2 | – | – | – |
| CC[C@H](C)[C@@H]1NC(=O)[C@H](CC(C)C)N(C)C(=O)C[C@@H](C(=O)N2CCOCC2)N(C)C(=O)[C@H](C2CCCC2)N(C)C(=O)C2(CCCC2)NC(=O)[C@@H]2CCCN2C(=O)[C@H](CCc2ccc(C(F)(F)F)c(Cl)c2)NC(=O)CN(C)C(=O)[C@H](Cc2ccc(C)cc2)N(CC2CCCCC2)C(=O)[C@@H]2CCN2C(=O)[C@H](C)N(C)C1=O [PP0085] ([NMeL]I[NMeA][Aze][X41][Sar][hPhe(3-Cl-4-CF3)]P[Ac5c][NMeGly(cPent)][NMeD]-Morpholide; lactam N-11) | C (A compound having a KD ratio of 0.1 or more and less than 3 is denoted as C) | – | C (A compound having a KD ratio of 0.1 or more and less than 3 is denoted as C) | – | 8.4 | – | – | – |
| CC[C@H](C)[C@@H]1NC(=O)[C@H](CC(C)C)N(C)C(=O)C[C@@H](C(=O)N2CCOCC2)N(C)C(=O)[C@H](C2CCCC2)N(C)C(=O)C2(CCCC2)NC(=O)[C@@H]2CCCN2C(=O)[C@H](CCc2ccc(C(F)(F)F)c(Cl)c2)NC(=O)CN(C)C(=O)[C@H](Cc2ccc(F)cc2)N(C)C(=O)[C@@H]2CCN2C(=O)[C@H](C)N(C)C1=O [PP0217] ([NMeL]I[NMeA][Aze][NMePhe(4-F)][Sar][hPhe(3-Cl-4-CF3)]P[Ac5c][NMeGly(cPent)][NMeD]-Morpholide; lactam N-11) | C (A compound having a KD ratio of 0.1 or more and less than 3 is denoted as C) | – | C (A compound having a KD ratio of 0.1 or more and less than 3 is denoted as C) | – | 0.18 | – | – | – |
| CCCN1C(=O)CN(C)C(=O)CN(C)C(=O)[C@H]([C@@H](C)CC)NC(=O)[C@H](CC(C)C)N(C)C(=O)C[C@@H](C(=O)N2CCOCC2)N(C)C(=O)[C@H](C2CCCC2)N(C)C(=O)C2(CCCC2)NC(=O)[C@@H]2CCCN2C(=O)[C@H](CCc2ccc(C(F)(F)F)c(Cl)c2)NC(=O)CN(CC)C(=O)[C@@H]1Cc1ccc(C)cc1 [PP0066] ([NMeL]I[Sar][Sar][NPrPhe(4-Me)][NEtG][hPhe(3-Cl-4-CF3)]P[Ac5c][NMeGly(cPent)][NMeD]-Morpholide; lactam N-11) | B (a compound having 3 or more and less than 10 is denoted as B) | – | C (A compound having a KD ratio of 0.1 or more and less than 3 is denoted as C) | – | 1.4 | – | – | – |
| CCO[C@@H]1C[C@H]2C(=O)NC3(CCC3)C(=O)N(C)[C@@H](C3CCCC3)C(=O)N(C)[C@H](C(=O)N(C)C)CC(=O)N(C)[C@@H](CC(F)(F)F)C(=O)N[C@@H]([C@@H](C)CC)C(=O)N(C)CC(=O)N(C)[C@H]3C/C=C\CCN(C3=O)[C@@H](Cc3ccc(C(F)(F)F)cc3)C(=O)N(C)CC(=O)N[C@@H](CCc3cc(F)c(C(F)(F)F)c(F)c3)C(=O)N2C1 [PP1124, (2S,8S,12R,14S,20S,23S,27S,30S,36S,38Z)-20-cyclopentyl-8-[2-[3,5-difluoro-4-(trifluoromethyl)phenyl]ethyl]-12-ethoxy-N,N,4,19,22,26,32,35-octamethyl-30-[(1S)-1-methylpropyl]-3,6,9,15,18,21,25,28,31,34,42-undecaoxo-27-(2,2,2-trifluoroethyl)-2-[[4-(trifluoromethyl)phenyl]methyl]spiro[1,4,7,10,16,19,22,26,29,32,35-undecazatricyclo[34.5.1.0^10,14]dotetracont-38-ene-17,1′-cyclobutane]-23-carboxamide] | A (a compound having 10 or more and less than 20 is denoted as A) | 0.056 | B (a compound having 3 or more and less than 10 is denoted as B) | – | – | – | – | – |
| CCCN1C(=O)[C@@H]2CCN2C(=O)[C@H](C)N(C)C(=O)[C@H]([C@@H](C)CC)NC(=O)[C@H](CC(C)C)N(C)C(=O)C[C@@H](C(=O)N2CCOCC2)N(C)C(=O)[C@H](C2CCCC2)N(C)C(=O)C2(CCC2)NC(=O)[C@@H]2CCCN2C(=O)[C@H](CCc2ccc(C(F)(F)F)c(Cl)c2)NC(=O)CN(C)C(=O)[C@@H]1Cc1ccc(C(F)(F)F)cc1 [PP0198] ([NMeL]I[NMeA][Aze][NPrPhe(4-CF3)][Sar][hPhe(3-Cl-4-CF3)]P[Ac4c][NMeGly(cPent)][NMeD]-Morpholide; lactam N-11) | C (A compound having a KD ratio of 0.1 or more and less than 3 is denoted as C) | – | B (a compound having 3 or more and less than 10 is denoted as B) | – | 0.19 | – | – | – |
| CCC[C@H]1C(=O)N[C@@H]([C@@H](C)CC)C(=O)N(C)CC(=O)N(C)[C@H]2C/C=C\CCN(C2=O)[C@@H](Cc2ccc(C(F)(F)F)cc2)C(=O)N(C)CC(=O)N[C@@H](CCc2cc(F)c(C(F)(F)F)c(F)c2)C(=O)N2C[C@H](OCC)C[C@H]2C(=O)NC2(CC(C)(C)C2)C(=O)N(C)[C@@H](CC2CC2)C(=O)N(C)[C@H](C(=O)N(C)C)CC(=O)N1C [PP2807] | – | – | – | – | 0.34 | – | AA (a compound having 20 or more is denoted as AA) | A (a compound having 10 or more and less than 20 is denoted as A) |
| CCCN1C(=O)CN(C)C(=O)CN(C)C(=O)[C@H]([C@@H](C)CC)NC(=O)[C@H](CC(C)C)N(C)C(=O)C[C@@H](C(=O)N2CCOCC2)N(C)C(=O)[C@H](C2CCCC2)N(C)C(=O)[C@](C)(CC2CCCCC2)NC(=O)[C@@H]2CCCN2C(=O)[C@H](CCc2cc(F)c(C(F)(F)F)c(F)c2)NC(=O)CN(C)C(=O)[C@@H]1Cc1ccc(C(F)(F)F)cc1 [PP0760] ([NMeL]I[Sar][Sar][NPrPhe(4-CF3)][Sar][hPhe(3,5-F2-4-CF3)]P[αMeCha][NMeGly(cPent)][NMeD]-Morpholide; lactam N-11) | – | – | – | B (a compound having 3 or more and less than 10 is denoted as B) | 16 | C (A compound having a KD ratio of 0.1 or more and less than 3 is denoted as C) | – | – |
| CCO[C@@H]1C[C@H]2C(=O)NC3(CCC3)C(=O)N(C)[C@@H](C3CCCC3)C(=O)N(C)[C@H](C(=O)N(C)C)CC(=O)N(C)[C@@H](CC)C(=O)N[C@@H]([C@@H](C)CC)C(=O)N3CC[C@H]3C(=O)N(C)[C@H]3CC(C)=CCN(C3=O)[C@@H](Cc3ccc(C(F)(F)F)cc3)C(=O)N(C)CC(=O)N[C@@H](CCc3cc(F)c(C(F)(F)F)c(F)c3)C(=O)N2C1 [PP1035] | C (A compound having a KD ratio of 0.1 or more and less than 3 is denoted as C) | 0.52 | C (A compound having a KD ratio of 0.1 or more and less than 3 is denoted as C) | – | – | – | – | – |
